We go through 2 substances from patent publication US20180002692A1, “Sequence Specific and Organism Specific Antimicrobials and Related Materials and Methods” (priority 2015, published 2018).

“Also recorded” adds a separate entry of the source. Where two headings read alike, the source gives them in different places.

The subject of data set [1] is ampicillin-resistant E. coli. It is filed as cell-based. As for the experimental part: pAKgfp1 plasmid was obtained from Addgene for TEM-1 β-lactamase resistance gene, bla (43). The plasmid was cloned into chemically competent Zymo DH5a E. coli (Expressys). Untransformed Zymo DH5a was used as a control strain for β-lactamase activity assays. Liquid cultures were grown in 2% LB, incubated at 37° C. and shaken at 225 rpm. Solid cultures were grown on 2% LB broth, 1.5% agar at 37° C. Ampicillin sodium salt (Sigma Aldrich) was used for selection at a concentration of 300 μg/mL for MIC and CFU analysis. Optical density measurements were taken using a Tecan GENios at 562 nm with a bandwidth of 35 nm. All bacterial freezer stocks were stored in 40% glycerol at −80° C.

The subject of data set [2] is bla mRNA. Description: bla mRNA expression by qPCR. Format: cell-based, E. coli. The note with it: 5 μM α-TSS, 25 μM α-RBS, 25 μM α-YUNR; absence of ampicillin. Here is the method: Three biological replicates were used for bla expression analysis. Cultures were pretreated overnight in respective PNA and liquid media in the absence of ampicillin and collected for RNA at 16 hr.
50 μL of the respective culture was added to 100 μL of Bacteria RNAprotect (Qiagen) and incubated at room temperature for 5 min. The cells were then pelleted via centrifugation for 3 min at 10,000 rpm, the supernatant removed, and samples were flash frozen in an ethanol dry ice bath and stored at −80° C. Precautions were taken to protect RNA from RNases using RNaseZap (Life Technologies). RNA was extracted from frozen cell pellets using GeneJET RNA purification kit (Thermo Scientific) and 350-600 ng was treated with Turbo DNA-free (Ambion). 50 ng cDNA was synthesized using Maxima Universal First Stand cDNA synthesis kit (Thermo Scientific). 1.5 ng of cDNA was used for qPCR with Maxima SYBR Green qPCR master mix with ROX normalization (Thermo Scientific) using Illumina Eco qPCR system. Transcript levels were analyzed using the ΔCq method with respect to moderately expressed housekeeping gene cysG (43). Transcript levels were further analyzed for the mutant populations using the ΔΔCq method with respect to the no treatment populations.

Data set [3] concerns ampicillin-resistant E. coli. Format: cell-based. Here is the method: Three biological replicates were selected from colonies and pretreated for 16 hr with respective α-TSS concentration in liquid media. After pretreatment, the cultures were diluted 1:100,000 into liquid media with respective concentration of ampicillin and α-TSS and allowed to grow with shaking at 37° C. for 24 hr. The final OD at 562 nm at 24 hr was used for data analysis.
Data fitting analysis was performed in Origin Pro 6.1. Data was fit to a sigmoidal/decay Boltzman function.
The degree of re-sensitization exerted by α-TSS in presence of varying concentrations of ampicillin above and below the MIC determined for α-TSS was then evaluated.
This is another data set of the same source.

The test system of data set [4] is ampicillin-resistant E. coli. Description: Emergence of tolerance to α-TSS/ampicillin combination. It is filed as cell-based. The note with it: 35 cultures. Here is the method:
Ampicillin-resistant cultures were pretreated overnight with 2.5 μM α-TSS and then subjected to selection pressure of 2.5 μM α-TSS and 300 μg/mL of ampicillin for 24 hours. […] Mutant populations 1 and 2 were diluted and re-grown under selection pressure for another 24 hours.
Changes in expression of a set of key stress response genes was examined to identify the resistance mechanism involved in obtaining resistance to α-TSS. Thirteen representative stress response genes were measured by qPCR (FIG. 5B).

The test system of data set [5] is ampicillin-resistant E. coli. In words: Colony forming unit analysis with α-TSS and ampicillin. To be noted: 1 μM α-TSS (below MIC), 300 μg/mL ampicillin.
Description: Cultures were sampled at respective time points and serial dilutions were performed ranging from 10^2-10^10. For ampicillin sensitivity experiment, dilutions were plated on solid media and 300 μg/mL ampicillin sodium salt and grown at 37° C. for 24 hr followed by cell counting. For the other experiments, cultures were serially diluted into PBS and plated onto 2% agar and 1.5% agar. Plates were incubated for 16-24 h at 37° C. and counted for visible colonies.
Overnight cultures of ampicillin-resistant E. coli were pre-treated with different concentrations of α-TSS, followed by treatment with ampicillin.
The test system of data set [6] is MG1655 E. coli. Description: Growth (optical density, lag time) of MG1655. The note with it: 10 μM antisense inhibitor. It is filed as cell-based. As for the experimental part: MG1655 E. coli cultures were started from individual colonies from 2% LB and 1.5% agar into M9 media. They were diluted 1:10,000 from overnight culture into fresh M9 with respective treatment and grown at 37° C. with 225 rpm shaking. Clinical strains were started from individual colonies grown on cation adjusted Mueller Hinton Broth with 1.5% agar into liquid CAMHB. These were diluted 1:10,000 into CAMHB medium with respective treatment and grown at 37° C. with 225 rpm shaking. Optical density measurements were taking using a Tecan GENios at 562 nm with a bandwidth of 35 nm. Lag time was calculated using Growth Rates Made Easy (Hall et al. Mol. Biol. Evol. 31(1):232-238). […]

Data set [7] has as its system MG1655 E. coli. In words: Colony forming unit analysis of MG1655. It is filed as cell-based. The note with it: 10 μM, 2 hours; listed as A-rpsD. An excerpt:
The effect of α-lexA, α-fnrS, and α-rpsD on cell viability using a colony forming unit analysis was then determine.

The test system of data set [8] is MDR Salmonella typhimurium. In words: Growth of clinical strain MDR S. typhimurium. The note with it: 10 μM. It is filed as cell-based. As for the experimental part:
(§1) MG1655 E. coli cultures were started from individual colonies from 2% LB and 1.5% agar into M9 media. They were diluted 1:10,000 from overnight culture into fresh M9 with respective treatment and grown at 37° C. with 225 rpm shaking. Clinical strains were started from individual colonies grown on cation adjusted Mueller Hinton Broth with 1.5% agar into liquid CAMHB. These were diluted 1:10,000 into CAMHB medium with respective treatment and grown at 37° C. with 225 rpm shaking. Optical density measurements were taking using a Tecan GENios at 562 nm with a bandwidth of 35 nm. Lag time was calculated using Growth Rates Made Easy (Hall et al. Mol. Biol. Evol. 31(1):232-238).
(§2) MDR E. coli was inhibited by four of the six oligomers tested (α-folC, α-ffh, α-lexA, and α-rpsD), extended-spectrum beta-lactamase (ESBL) K. pneumoniae was inhibited by two of the antisense oligomers (α-fnrS and α-rpsD), and New Delhi metallo-β-lactamase (NDM-1) K. pneumoniae was inhibited by one of the oligomers tested (α-rpsD) (FIGS. 15-16).

Data set [9] deals with CRE E. coli. Description: Growth of clinical strain CRE E. coli. Format: cell-based, Escherichia coli. The note with it: 10 μM. Here is the method: as §1, §2
Data set [10] has as its system MDR E. coli. In words: Growth of clinical strain MDR E. coli. It is filed as cell-based. The note with it: 10 μM. As for the experimental part:
as §1, §2

Data set [11] concerns ESBL K. pneumoniae. Description: Growth of clinical strain ESBL K. pneumoniae. It is filed as cell-based, Klebsiella pneumoniae. To be noted: 10 μM. Here is the method:
as §1, §2

For data set [12], the system named is NDM-1 K. pneumoniae. Description: Growth of clinical strain NDM-1 K. pneumoniae. Format: cell-based, Klebsiella pneumoniae. To be noted: 10 μM. Here is the method:
as §1, §2

Where [13] appears, read: 0.5 μM α-TSS (below MIC), 24 hr.

As to “KFFKFFKFFK-O-tactcatactct (antisense TACTCATACTCT; PNA, O-linker to (KFF)3K peptide, chemistry not fully specified) [α-TSS]”, the “re-sensitization of drug resistant E. coli to ampicillin” value in data set [1] is “re-sensitized drug resistant E. coli to ampicillin; also recorded: re-sensitization of drug resistant E. coli to ampicillin; also recorded: re-sensitize”. Also, the “growth in absence of ampicillin (toxicity of antisense agent)” value in [1] (absence of ampicillin) was “non-toxic effect; also recorded: No inhibition”. The “growth of drug-resistant E. coli in presence of ampicillin” value in data set [1] (antisense oligomer plus 300 μg/mL ampicillin) is “hindered cell growth; also recorded: impact growth; also recorded: significant antibiotic effect”. Also, the “minimum inhibitory concentration (MIC)” value in [1] (in presence of 300 μg/mL ampicillin, after overnight pretreatment with antisense agent) was 2.5 µM. For the same substance, in data set [2], the “bla mRNA expression” value is reported as “did not affect bla transcript levels; also recorded: did not significantly reduce bla expression”. For the same substance, the “slope of the transition from resistant to sensitive (Boltzman fit)” value in [3] (0.5 μM α-TSS (below MIC)) was −0.0038 ODmLμg^−1. Besides, in [3] (setting [13]), the “ampicillin concentration up to which growth is unhindered” value was determined as 250 µg/mL and the “ampicillin concentration with no growth” value was 550 µg/mL. Besides, in data set [3] (5 μM α-TSS (above MIC)), the “decrease in ampicillin MIC compared to the no treatment cultures” value was “greater than 20 fold”; the “increase in negative slope compared to below MIC and no treatment” value is on record as “Greater than two fold”; the “slope of the transition from resistant to sensitive (Boltzman fit)” value was −0.010 OD/μg/mL. For the same substance, the “lowest ampicillin concentration showing a decrease in growth” value in [3] (5 μM α-TSS (above MIC), 24 hr) is 25 µg/mL. Besides, the “shift in ampicillin sensitivity” value in [3] (α-TSS at 0.5 μM (below MIC) and 5 μM (above MIC)) was “leftward shift in ampicillin sensitivity”. In data set [4] (2.5 μM α-TSS (MIC)/β-lactam), the “share of independent cultures showing emergence of tolerance” value is “less than 5%”. For the same substance, the “independent cultures showing emergence of tolerance” value in data set [4] (5 μM α-TSS/ampicillin) was “None”. In addition, the “colony forming units over time” value in [5] is listed as “increased with time”.

Consider “KFFKFFKFFK-O-ttgccattttct (antisense TTGCCATTTTCT; all peptide nucleic acid (PNA); (KFF)3K cell-penetrating peptide joined to the N-terminus through an O-linker) [α-rpsD, 12-mer antisense PNA centered on start codon of rpsD, O-linker to (KFF)3K]”, for which the lag time result in [6] was “significantly increased lag time”. Also, the “growth of MG1655 E. coli cultures” value in data set [6] (24 h) is given as “completely inhibited; also recorded: completely prevented cell growth; also recorded: Complete inhibition”. For the same substance, the “colony forming units per milliliter after two hours of treatment” value in data set [7] is on record as “zero”. Besides, the “growth inhibition of MDR S. typhimurium” value in data set [8] was “inhibited”. Also, the “growth inhibition of CRE E. coli” value in data set [9] was “completely prevented growth; also recorded: inhibited”. Also, the “growth inhibition of MDR E. coli” value in data set [10] is “inhibited”. The “growth inhibition of ESBL K. pneumoniae” value in [11] is “inhibited”. The “growth inhibition of NDM-1 K. pneumoniae” value in data set [12] is “inhibited”.
